Earlier results as cited in patent publication US10729708B2, “Stabilized glycopeptide antibiotic formulations” (XELLIA PHARMACEUTICALS APS, priority 2016, dated 2020).

Tests used:
Conditions in all cases: QC strain, CLSI protocol
[1] = test system: Staphylococcus aureus ATCC 29213
[2] = test system: Enterococcus faecalis ATCC 29212
[3] = test system: Streptococcus pnemoniae ATCC 49619

For `CN[C@H](CC(C)C)C(=O)NC1C(=O)N[C@@H](CC(N)=O)C(=O)N[C@H]2C(=O)N[C@H]3C(=O)NC(C(=O)N[C@@H](C(=O)O)c4cc(O)cc(O)c4-c4cc3ccc4O)[C@H](O)c3ccc(c(Cl)c3)Oc3cc2cc(c3O[C@@H]2OC(CO)[C@@H](O)C(O)C2O[C@H]2CC(C)(N)[C@H](O)C(C)O2)Oc2ccc(cc2Cl)C1O.Cl` (stereo partly drawn) [Vancomycin], the “Referent MIC ranges” value [1] is given as 0.5 to 2 µg/mL, the “Referent MIC ranges” value [2] is given as 1 to 4 µg/mL and the “Referent MIC ranges” value [3] is given as 0.125 to 0.5 µg/mL.
